Reference: PMC12930396, “Positive modulators of N-methyl-D-aspartate receptor: structure–activity relationship study on steroidal C-17 and C-20 oxime ethers” (RSC Advances, 2026)
≈ marks a conversion by molar mass, not a printed value. Entries after “also recorded” stand apart in the source; their conditions may differ. Like-named read-outs stand apart in the source and are kept apart here.

Legend:
GluN1/GluN2B receptors = target: T1, GluN1/GluN2B receptors (Rattus norvegicus, UniProt P35439+Q00960); test: Patch-clamp: modulation of glutamate-induced currents of recombinant GluN1/GluN2B receptors expressed in HEK293 cells; type: cell-based; conditions: for h ± SEM (apparent Hill coefficient): concentration-response fit; for h ± SEM (apparent Hill coefficient) / EC50 / Emax: mean ± SEM; for EC50: half-maximal potentiation of currents evoked by 1 µM glutamate; for EC50 / Emax: HEK293; for Emax: maximal potentiation of currents evoked by 1 µM glutamate and 30 µM glycine
T1 construct: expressed in transfected cells; host or cells: HEK293 cells (ATCC No. CRL-1573)
Method: To investigate the effect of compounds 11–23 on the activity of NMDARs, electrophysiological measurements were performed on HEK293 cells that were co-transfected with cDNAs containing genes encoding for the rat GluN1-1a and GluN2B subunits. The degree of modulation (E; potentiation/inhibition) for the newly synthesized compounds was determined using the following formula: [drawing 1] where Ie is the value of the current amplitude during glutamate and compound coapplication, and Ia is the current amplitude value for glutamate application. […] The results are presented as mean ± standard error of the mean (SEM), with n equal to the number of independent measurements. One-way analysis of variance (ANOVA) was used for multiple comparisons (unless otherwise stated, a value of P ≤ 0.05 was used for the determination of significance).
We have evaluated the relationship between oxime derivatives 11–23 and their modulatory effect on recombinant GluN1/GluN2B receptors. Due to the […] effect of neurosteroid-based PAMs at NMDARs[20,44]
HEK293 cells (American Type Culture Collection, ATCC No. CRL-1573, Rockville, MD, USA) were cultured in Opti-MEM I (Invitrogen, Carlsbad, CA, USA) supplemented with 5% fetal bovine serum (FBS; PAN Biotech, Aidenbach, Germany) at 37 °C in 5% CO2. 24 h before transfection, HEK293 cells were plated in 24-well plates at a density of 2 × 10^5 cells per well. The next day, the cells were transfected with cDNA encoding rat GluN1-1a (GluN1; GenBank accession number U08261)[56] and GluN2B (GenBank accession number M91562)[57] subunits (in the pCI-neo expression vector), along with green fluorescent protein (GFP; in the pQBI 25 vector, Takara, Tokyo, Japan). Briefly, equal amounts (200 ng) of cDNAs encoding GluN1-1a, GluN2B, and GFP were mixed with 0.6 µl of Matra-A reagent (IBA, Gottingen, Germany) in 50 µL of Opti-MEM I and added to confluent HEK293 cells cultured in 24-well plates. After trypsinization, the cells were resuspended in Opti-MEM I containing 1% FBS, supplemented with 20 mM MgCl2, 1 mM D,L-2-amino-5-phosphonovaleric acid, 3 mM kynurenic acid, and 1 µM ketamine, and plated on 30 mm glass coverslips coated with collagen and poly-L-lysine. Transfected cells were identified by GFP epifluorescence. Electrophysiology experiments were performed 24–48 h after transfection.
Whole-cell current recordings, voltage-clamped at a holding potential of −60 mV, were performed at room temperature using a patch-clamp amplifier (Axopatch 200B; Molecular Devices, Sunnyvale, CA, USA) after capacitance and series resistance (<10 MΩ) compensation (80–90%). NMDAR current responses were low-pass filtered at 2 kHz, digitally sampled at 5 kHz, and analysed using pClamp software (version 10.6; Molecular Devices). Patch pipettes (3–5 MΩ), pulled from borosilicate glass, were filled with an intracellular solution (ICS) containing (in mM): 15 CsCl, 10 BAPTA, 3 MgCl2, 1 CaCl2, 120 gluconic acid, 10 HEPES, and 2 ATP-Mg salt (pH adjusted to 7.2 with CsOH). The extracellular solution (ECS) contained (in mM): 160 NaCl, 2.5 KCl, 0.2 EDTA, 10 glucose, 10 HEPES, and 0.7 CaCl2 (pH adjusted to 7.3 with NaOH). NMDAR responses were induced by 1 µM glutamate and 30 µM glycine. 1% DMSO was present in all control and testing solutions. Solution applications were performed using a microprocessor-controlled multibarrel fast-perfusion system with a solution exchange rate around the cells of ∼10 ms.[58]

Stability in rat plasma = type: in vitro ADME
Method: Compounds were prepared as 1.6 mg mL^−1 stock solutions in methanol. Then, 20 µL of stock solution was added to 1000 µL of rat plasma (BioIVT, Cat. No. RAT00PLLH-0102307), maintained at 37 °C. Aliquots (50 µL) withdrawn at 0, 8, and 24 h were analyzed by HPLC. An aliquot of plasma was extracted with methanol (450 µL) containing an internal standard, and the solution was vortexed (20 s) and centrifuged at 13 500 rpm for 10 min. The supernatant was transferred to an autosampler vial, and 10 µL was injected into an LC-MS system. The samples were analyzed using an Agilent 6230 TOF LC/MS. Samples were separated on a Waters ACQUITY UPLC CSH Phenyl-Hexyl column (100 × 2.1, 130 Å, 1.7 µm) at a flow rate of 0.3 mL min^−1. […]. The temperature, the flow rate of the nitrogen drying gas, the pressure of the nitrogen nebulizing gas, and the flow rate of the sheath gas were set at 325 °C, 10 L min^−1, 40 psi, […], and 11 L min^−1, respectively. Results are represented as a percentage of the compound remaining in spiked plasma.

in vitro [1] = conditions: for half-life at 10 µM: rat, microsomes
Method: The reactions were terminated by the addition of four volumes of ice-cold methanol, mixed vigorously, and left at −20 °C for 1h. After that, the samples were centrifuged and the supernatants were analysed by means of ECHO-MS® System (Sciex, Framingham, MA, USA). Zero time points were prepared by adding ice-cold methanol to the mixture of the compound with cofactors before the addition of microsomes. […] Intrinsic clearance (CLint) was calculated using the following formula: [drawing 4] where V is the incubation volume per milligram of microsomal protein (µL mg^−1) and t1/2 is the microsomal half-life.

in vitro [2] = conditions: for PAMPA permeability Retention (mass retention): 5 h, 100 µM; for PAMPA permeability Retention (mass retention) / Papp at 5 h, 100 µM: pH 7.4; for Papp at 5 h, 100 µM: PAMPA
Method: Permeability was quantified using permeability coefficients (Pe) and mass retention, the latter representing the proportion of compound retained in the membrane.
Permeation experiments were conducted in polystyrene 96-well filter plates with PVDF membrane pre-coated with structured layers of phospholipids (Corning Gentest™) according to the manufacturer's instructions. Briefly, the plate was warmed to room temperature, and meanwhile, the solutions of the compounds were diluted from 10 mM DMSO stocks to TRIS–HCl buffer pH 7.4 to reach a 100 µM final concentration. The DMSO concentration in the samples was 1%. Then, 300 µL of these solutions were transferred into the donor (receiver) plate wells, and 200 µL of the (TRIS) buffer was added to the acceptor (filter) plate wells. The filter plate and receiver plate were assembled and incubated for 5 h on an orbital shaker (300 rpm). After this, the concentration of the tested substances in both the donor and acceptor compartments was determined with use of LC/MS. Liquid chromatography was performed using an ExionLC AD pump and autosampler from Sciex (Framingham, MA, USA). […] The mobile phase flow rate was 300 µL min^−1. The column Synergi Fusion-RP from Phenomenex (Torrance, CA, USA) was used and was kept at 40 °C during the analysis.

[3] = Thermodynamic solubility in PBS pH 7.4; type: physicochemical; conditions: 20 °C, pH 7.4, aqueous buffer, thermodynamic from solid
Method: The reference samples were prepared as follows: a weight corresponding to 2.5 µmol was dissolved in 250 µL of DMSO, resulting in a concentration of 10 mM stock solution. Each calibration level standard was prepared by diluting the stock solution in a mixture of PBS and acetonitrile (50 : 50 v/v). The samples for testing were prepared as follows: the volume of 1000 µL of PBS was added to the testing tube containing a weight of sample corresponding to 0.4 mM. The mixture was shaken at 1000 rpm at 20 °C for 24 h. The mixture was then filtered using a syringe polypropylene 0.45 µm filter. Samples and calibration standards are prepared using an automated system of a robotic arm (PAL-RTC, Switzerland). Then, the sample was analysed on chromatographic system (Vanquish UHPLC, Thermo Fisher Scientific, Germany) connected to the diode array detector and consequently to the charged aerosol detector (both Vanquish, Thermo Fisher Scientific, Germany), Thermo Scientific Accucore C8 (100 × 3 mm; 2.6 µm) column, using gradient elution with acetonitrile/methanol/5 mM formate buffer (pH = 3.00); flow: 1.0 cm^3 min^−1; column temperature: 40 °C; CAD temperature: 30 °C; sample volume: 5 mm^3.

[4] = Solubility PBS, pH 7.4 (thermodynamic)
[5] = PBS, PBS pH 7.4, 20 °C, 24 h, read-out: Solubility PBS, pH 7.4 (thermodynamic)

T1 sequence (Q00960 27-1482, other chains not shown): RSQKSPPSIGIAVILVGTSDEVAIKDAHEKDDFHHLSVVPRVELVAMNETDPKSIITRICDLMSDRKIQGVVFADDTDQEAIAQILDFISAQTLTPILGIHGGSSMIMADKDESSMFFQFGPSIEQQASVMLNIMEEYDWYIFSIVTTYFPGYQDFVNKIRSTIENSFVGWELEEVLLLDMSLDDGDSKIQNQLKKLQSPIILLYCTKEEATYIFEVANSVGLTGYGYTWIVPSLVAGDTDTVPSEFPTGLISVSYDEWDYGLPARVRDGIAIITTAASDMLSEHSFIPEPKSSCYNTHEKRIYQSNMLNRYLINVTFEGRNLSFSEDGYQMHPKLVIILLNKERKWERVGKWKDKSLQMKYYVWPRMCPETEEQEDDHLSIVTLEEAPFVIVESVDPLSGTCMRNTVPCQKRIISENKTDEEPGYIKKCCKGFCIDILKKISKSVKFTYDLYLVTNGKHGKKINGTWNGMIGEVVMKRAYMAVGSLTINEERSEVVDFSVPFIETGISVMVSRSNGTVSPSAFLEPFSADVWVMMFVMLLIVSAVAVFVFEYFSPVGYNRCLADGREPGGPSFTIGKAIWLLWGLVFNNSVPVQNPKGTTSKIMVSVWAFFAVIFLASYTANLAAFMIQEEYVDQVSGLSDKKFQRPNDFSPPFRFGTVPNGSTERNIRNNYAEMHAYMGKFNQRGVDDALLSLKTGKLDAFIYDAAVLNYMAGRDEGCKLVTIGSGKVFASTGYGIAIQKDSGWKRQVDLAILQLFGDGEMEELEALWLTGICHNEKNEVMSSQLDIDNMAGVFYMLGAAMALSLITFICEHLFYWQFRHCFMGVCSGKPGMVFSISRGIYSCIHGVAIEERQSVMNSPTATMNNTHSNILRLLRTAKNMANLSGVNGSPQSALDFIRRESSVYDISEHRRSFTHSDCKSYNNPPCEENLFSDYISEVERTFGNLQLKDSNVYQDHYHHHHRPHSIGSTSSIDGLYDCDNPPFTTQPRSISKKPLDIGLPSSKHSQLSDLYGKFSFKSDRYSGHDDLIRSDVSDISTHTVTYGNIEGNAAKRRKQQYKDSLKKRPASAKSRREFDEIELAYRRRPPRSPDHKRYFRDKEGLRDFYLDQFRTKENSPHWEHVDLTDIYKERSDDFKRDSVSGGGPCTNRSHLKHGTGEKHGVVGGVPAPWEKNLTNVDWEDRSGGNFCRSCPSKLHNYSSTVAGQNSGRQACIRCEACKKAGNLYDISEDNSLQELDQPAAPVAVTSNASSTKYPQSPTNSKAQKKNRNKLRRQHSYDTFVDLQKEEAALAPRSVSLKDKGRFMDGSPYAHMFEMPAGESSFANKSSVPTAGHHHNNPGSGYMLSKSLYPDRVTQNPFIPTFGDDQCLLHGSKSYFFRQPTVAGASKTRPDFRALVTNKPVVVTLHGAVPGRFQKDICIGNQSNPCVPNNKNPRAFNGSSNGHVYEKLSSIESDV

SMILES: CCO/N=C1\CCC2C3CC=C4C[C@@H](OC(=O)CCCC(=O)O)CC[C@]4(C)C3CC[C@]12C (stereo partly drawn) [Compound 15, 17-Oxo-androst-5-en-3β-yl hemiglutarate O-ethyloxime]
- h ± SEM (apparent Hill coefficient) (GluN1/GluN2B receptors): 1.5 ± 0.1
- EC50 (GluN1/GluN2B receptors): 22.7 ± 3.1 µM
- Emax (GluN1/GluN2B receptors): 441 ± 76%
- Stability in rat plasma (% remaining) 8 h (Stability in rat plasma; rat, plasma): 82.1 ± 7.5 % remaining
- Stability in rat plasma (% remaining) 24 h (Stability in rat plasma; rat, plasma): 69.9 ± 5.0 % remaining
- half-life at 10 µM (in vitro [1]; pH 7.4): > 60 min
- PAMPA permeability Retention (mass retention) (in vitro [2]): 80%

SMILES: C/C(=N\O)[C@H]1CCC2C3CC=C4C[C@@H](OC(=O)CCCC(=O)O)CC[C@]4(C)C3CC[C@@]21C (stereo partly drawn) [Compound 11, 20-Oxo-pregn-5-en-3β-yl 3-hemiglutarate 20-oxime]
- h ± SEM (apparent Hill coefficient) (GluN1/GluN2B receptors): 1.5 ± 0.1
- EC50 (GluN1/GluN2B receptors): 7.9 ± 2.1 µM
- Emax (GluN1/GluN2B receptors): 270 ± 35%
- Stability in rat plasma (% remaining) 8 h (Stability in rat plasma; rat, plasma): 69.9 ± 6.0 % remaining
- Stability in rat plasma (% remaining) 24 h (Stability in rat plasma; rat, plasma): 58.1 ± 8.1 % remaining
- Stability in rat microsomes Clint (in vitro [1]): 23.6 µlmin^−1mg
- half-life at 10 µM (in vitro [1]; pH 7.4): 58.6 ± 18.7 min
- PAMPA permeability (in vitro [2]): comparable to or greater than that of verapamil
- PAMPA permeability Retention (mass retention) (in vitro [2]): 87%
- Papp at 5 h, 100 µM (in vitro [2]): 155 ×10⁻⁶ cm/s

SMILES: CCO/N=C(\C)[C@H]1CCC2C3CC=C4C[C@@H](OC(=O)CCC(=O)O)CC[C@]4(C)C3CC[C@@]21C (stereo partly drawn) [Compound 22, 20-Oxo-pregn-5-en-3β-yl hemisuccinate O-ethyloxime]
- h ± SEM (apparent Hill coefficient) (GluN1/GluN2B receptors): 1.3 ± 0.1
- EC50 (GluN1/GluN2B receptors): 7 ± 1.1 µM
- Emax (GluN1/GluN2B receptors): 340 ± 22%
- Stability in rat microsomes Clint (in vitro [1]): 26.3 µlmin^−1mg
- half-life at 10 µM (in vitro [1]; pH 7.4): 52.6 ± 3.7 min
- PAMPA permeability Retention (mass retention) (in vitro [2]): 96%
- Papp at 5 h, 100 µM (in vitro [2]): 1.58 ×10⁻⁶ cm/s
- solubility thermodynamic at 24 h [3, 4]: 22 ± 1 µM

SMILES: CC(=O)[C@H]1CC[C@H]2[C@@H]3CC=C4C[C@@H](OC(=O)CCCC(=O)O)CC[C@]4(C)[C@H]3CC[C@]12C [20-Oxo-PE-hGlu, 20-Oxo-pregn-5-en-3β-yl hemiglutarate, reference compound]
- Stability in rat plasma (% remaining) 8 h (Stability in rat plasma; rat plasma, 37 °C): 44 ± 3 % remaining
- Stability in rat plasma (% remaining) 24 h (Stability in rat plasma; rat plasma, 37 °C): 21 ± 1 % remaining
- solubility thermodynamic at 24 h [3, 5]: 86 ± 1 µM (≈ 37 µg/mL)

SMILES: C[C@]12CC[C@H](OC(=O)CCCC(=O)O)CC1=CCC1C2CC[C@]2(C)/C(=N/O)CCC12 (stereo partly drawn) [Compound 14, 17-Oxo-androst-5-en-3β-yl 3-hemiglutarate 17-oxime]
- Modulatory profile at NMDARs (GluN1/GluN2B receptors; GluN1/GluN2B in HEK293): not identified as PAMs; also recorded: lost its PAM-activity
- Stability in rat plasma (% remaining) 8 h (Stability in rat plasma; rat, plasma): 61.1 ± 1.6 % remaining
- Stability in rat plasma (% remaining) 24 h (Stability in rat plasma; rat, plasma): 56.3 ± 2.5 % remaining
- half-life at 10 µM (in vitro [1]; pH 7.4): > 60 min
- PAMPA permeability (in vitro [2]): moderate permeability
- PAMPA permeability Retention (mass retention) (in vitro [2]): 17%
- Papp at 5 h, 100 µM (in vitro [2]): 26.3 ×10⁻⁶ cm/s

SMILES: CCO/N=C(\C)[C@H]1CCC2C3CC=C4C[C@@H](OC(=O)CCCCC(=O)O)CC[C@]4(C)C3CC[C@@]21C (stereo partly drawn) [Compound 23, 20-Oxo-pregn-5-en-3β-yl hemiadipate O-ethyloxime]
- h ± SEM (apparent Hill coefficient) (GluN1/GluN2B receptors): 1.7 ± 0.1
- EC50 (GluN1/GluN2B receptors): 7.5 ± 1.1 µM
- Emax (GluN1/GluN2B receptors): 451 ± 79%
- Metabolic stability in rat liver microsomes (in vitro [1]; 1 h, 10 µM, pH 7.4): no detectable metabolism after 60 min
- half-life at 10 µM (in vitro [1]; pH 7.4): > 60 min
- PAMPA permeability Retention (mass retention) (in vitro [2]): 100%
- solubility thermodynamic at 24 h [3, 4]: 21 ± 1 µM (≈ 10.2 µg/mL)

SMILES: CC(=O)[C@H]1CC[C@H]2[C@@H]3CC=C4C[C@@H](OC(=O)CCC(=O)O)CC[C@]4(C)[C@H]3CC[C@]12C [20-Oxo-PE-hSuc, 20-Oxo-pregn-5-en-3β-yl hemisuccinate, reference compound]
- Stability in rat plasma (% remaining) 8 h (Stability in rat plasma; rat plasma, 37 °C): 69 ± 1 % remaining
- Stability in rat plasma (% remaining) 24 h (Stability in rat plasma; rat plasma, 37 °C): 50 ± 2 % remaining
- solubility thermodynamic at 24 h [3, 5]: 277 ± 1 µM
